Measurements taken from publication PMC8599861, “Structures of prokaryotic ubiquitin-like protein Pup in complex with depupylase Dop reveal the mechanism of catalytic phosphate formation” (Nature Communications, 2021).

Key:
[1] = target: T1, AcelDop (in complex with AcelPup deltaN43) (Acidothermus cellulolyticus, UniProt A0LU48); test: X-ray crystal structure, […] A; type: binding; conditions: co-crystal with PupQ deltaN43 and Mg2+; nucleotide site, about 72 % occupancy
T1 construct: gene dop; C-terminal TEV-His6 tag cleaved, E. coli Rosetta (DE3); Pup fragment deltaN43 (PupQ, PupE or PupBSO) synthetic; with Prokaryotic ubiquitin-like protein Pup
T1 sequence (A0LU49 44-71 E71Q): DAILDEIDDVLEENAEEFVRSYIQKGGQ
T1 sequence (A0LU48 whole entry, the tested form may be a part): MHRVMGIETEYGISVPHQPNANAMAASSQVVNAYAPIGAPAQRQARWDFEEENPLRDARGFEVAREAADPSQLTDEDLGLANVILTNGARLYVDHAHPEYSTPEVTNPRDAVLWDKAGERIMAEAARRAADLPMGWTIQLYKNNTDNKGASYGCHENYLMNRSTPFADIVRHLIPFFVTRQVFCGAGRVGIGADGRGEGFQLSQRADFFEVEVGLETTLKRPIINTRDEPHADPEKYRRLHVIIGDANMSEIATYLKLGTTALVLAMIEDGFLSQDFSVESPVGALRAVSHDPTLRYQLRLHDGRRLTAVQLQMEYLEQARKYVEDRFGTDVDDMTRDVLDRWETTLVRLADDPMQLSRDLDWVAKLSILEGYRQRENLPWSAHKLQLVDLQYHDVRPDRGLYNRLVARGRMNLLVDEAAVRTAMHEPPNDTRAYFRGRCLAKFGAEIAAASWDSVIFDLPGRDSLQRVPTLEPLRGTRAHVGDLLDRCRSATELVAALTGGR

[2] = target: T1, AcelDop (in complex with AcelPup deltaN43); test: X-ray crystal structures, […]-1.[…] A; type: binding; conditions: with PupE deltaN43 and MgF3(H2O)- (7OYF), phosphorylated PupE, Mg2+/K+ (7OY3; ADP formed in crystal soaked with ATP) or MgF4 2- (7OYH); nucleotide site
[3] = target: T1, AcelDop (in complex with AcelPup deltaN43); test: intact mass spectrometry of phosphorylated PupBSO; type: biochemical; conditions: 2 mM ATP, PupBSO deltaN43 as phosphoryl acceptor, 20 mM MgCl2, pH 8.0, 30 C

## Nc1ncnc2c1ncn2[C@@H]1O[C@H](COP(=O)(O)OP(=O)(O)CP(=O)(O)O)[C@@H](O)[C@H]1O [AMP-PCP]
[1]
  X-ray crystal structure, 1.65 A: crystals of the enzyme in complex with the PupQ fragment and AMP-PCP

## Nc1ncnc2c1ncn2[C@@H]1O[C@H](COP(=O)(O)OP(=O)(O)O)[C@@H](O)[C@H]1O [ADP]
[2]
  X-ray crystal structures, 1.75-1.88 A: We solved the structure of a Dop-Pup complex with a square planar MgFx species bound between ADP and Pup

## Nc1ncnc2c1ncn2[C@@H]1O[C@H](COP(=O)(O)OP(=O)(O)OP(=O)(O)O)[C@@H](O)[C@H]1O [ATP]
[3]
  intact mass spectrometry of phosphorylated PupBSO: Dop indeed forms a phosphorylated PupBSO species in the presence of ATP
